Experimental findings from patent publication US7732604B2, “Triazolopyrazine derivatives” (Pfizer Inc., priority 2006, dated 2010) are described below.

The first experiment deals with T1, HGFR (Homo sapiens, UniProt P08581).
T1 construct: purchased Upstate 14-526
T1 sequence (P08581 974-1390 limits assumed): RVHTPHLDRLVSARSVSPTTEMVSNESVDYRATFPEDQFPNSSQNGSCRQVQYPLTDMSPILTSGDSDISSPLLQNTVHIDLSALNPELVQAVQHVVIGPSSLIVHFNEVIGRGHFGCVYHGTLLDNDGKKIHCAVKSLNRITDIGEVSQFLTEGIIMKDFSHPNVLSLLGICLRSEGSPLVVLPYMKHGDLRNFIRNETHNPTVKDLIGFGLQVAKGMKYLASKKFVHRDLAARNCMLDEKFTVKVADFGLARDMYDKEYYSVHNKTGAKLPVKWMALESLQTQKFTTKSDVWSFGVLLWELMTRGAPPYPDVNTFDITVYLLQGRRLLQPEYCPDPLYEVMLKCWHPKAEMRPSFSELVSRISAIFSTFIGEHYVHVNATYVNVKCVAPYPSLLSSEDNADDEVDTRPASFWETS
Description: HGFR continuous-coupled spectrophotometric assay (tyrosine kinase activity on Met-2 substrate peptide). Type of experiment: biochemical. Particulars: HGFR 50 nM, Met-2 peptide 0.5 mM, ATP 300 μM, 37° C., absorbance 340 nm; read-out: Ki.
Broadly, the Ki is a dissociation constant, usually derived from enzyme kinetics or from competition with a known ligand. Consider `CC(c1ccc2c(c1)OCCO2)n1nnc2ncc(Br)nc21` (stereo not drawn) [Example 54, 6-Bromo-1-[1-(2,3-dihydro-benzo[1,4]dioxin-6-yl)-ethyl]-1H-[1,2,3]tiazolo[4,5-b]pyrazine], for which the Ki is 42 nM.

On to `CC(c1ccc2c(c1)OCCO2)n1nnc2ncc(-c3cnn(C)c3)nc21` (stereo not drawn) [Example 56, 1-[1-(2,3-Dihydro-benzo[1,4]dioxin-6-yl)-ethyl]-6-(1-methyl-1H-pyrazol-4-yl)-1H-[1,2,3]triazolo[4,5-b]pyrazine], for which the Ki stood at 37 nM.

With `CNc1cnc2nnn(Cc3ccc4ncccc4c3)c2n1` [Example 57, Methyl-(3-quinolin-6-ylmethyl-3H-[1,2,3]triazolo[4,5-b]pyrazin-5-yl)-amine], the Ki was 11 nM.

With `CC(O)Cn1cc(-c2cnc3nnn(Cc4ccc5ncccc5c4)c3n2)cn1` (stereo not drawn) [Example 59, 1-[4-(3-Quinolin-6-ylmethyl-3H-[1,2,3]triazolo[4,5-b]pyrazin-5-yl)-pyrazol-1-yl]-propan-2-ol], the Ki was found to be 11 nM.

In the case of `c1cnc2ccc(Cn3nnc4ncc(-c5cnn([C@@H]6CCOC6)c5)nc43)cc2c1` [Example 61, 6-{6-[(R)-1-(Tetrahydro-furan-3-yl)-1H-pyrazol-4-yl]-[1,2,3]triazolo[4,5-b]pyrazin-1-ylmethyl}-quinoline], the Ki is 10 nM.

In the case of `c1cnc2ccc(Cn3nnc4ncc(-c5cnn([C@H]6CCOC6)c5)nc43)cc2c1` [Example 62, 6-{6-[(S)-1-(Tetrahydro-furan-3-yl)-1H-pyrazol-4-yl]-[1,2,3]triazolo[4,5-b]pyrazin-1-ylmethyl}-quinoline], the Ki amounted to 13 nM.

For the compound `Cc1n[nH]c(C)c1-c1cnc2nnn(Cc3ccc4ncccc4c3)c2n1` [Example 63, 6-[6-(3,5-Dimethyl-1H-pyrazol-4-yl)-[1,2,3]triazolo[4,5-b]pyrazin-1-ylmethyl]-quinoline], the Ki was 22 nM.

`Cn1nc(C(F)(F)F)cc1-c1cnc2nnn(Cc3ccc4ncccc4c3)c2n1` [Example 64, 6-[6-(2-Methyl-5-trifluoromethyl-2H-pyrazol-3-yl)-[1,2,3]triazolo[4,5-b]pyrazin-1-ylmethyl]-quinoline]: the Ki came to 4 nM.

Turning to `COC(=O)C(C)(C)n1cc(-c2cnc3nnn(Cc4ccc5ncccc5c4)c3n2)cn1` [Example 65, 2-Methyl-2-[4-(3-quinolin-6-ylmethyl-3H-[1,2,3]triazolo[4,5-b]pyrazin-5-yl)-pyrazol-1-yl]-propionic acid methyl ester], the Ki worked out at 47 nM.

On to `COC(=O)Cn1cc(-c2cnc3nnn(Cc4ccc5ncccc5c4)c3n2)cn1` [Example 66, [4-(3-Quinolin-6-ylmethyl-3H-[1,2,3]triazolo[4,5-b]pyrazin-5-yl)-pyrazol-1-yl]-acetic acid methyl ester], for which the Ki worked out at 18 nM.

For `CC(C)(C(N)=O)n1cc(-c2cnc3nnn(Cc4ccc5ncccc5c4)c3n2)cn1` [Example 67, 2-[4-(3-Quinolin-6-ylmethyl-3H-[1,2,3]triazolo[4,5-b]pyrazin-5-yl)-pyrazol-1-yl]-isobutyramide], the Ki was 41 nM.

With `CC(C)(C(=O)O)n1cc(-c2cnc3nnn(Cc4ccc5ncccc5c4)c3n2)cn1` [Example 68, 2-Methyl-2-[4-(3-quinolin-6-ylmethyl-3H-[1,2,3]triazolo[4,5-b]pyrazin-5-yl)-pyrazol-1-yl]-propionic acid], the Ki is 27 nM.

As for `c1cnc2ccc(Cn3nnc4ncc(-c5ccn[nH]5)nc43)cc2c1` [Example 69, 6-[6-(2H-Pyrazol-3-yl)-[1,2,3]triazolo[4,5-b]pyrazin-1-ylmethyl]-quinoline], the Ki stood at 3 nM.

`COCCNc1cnc2nnn(Cc3ccc4ncccc4c3)c2n1` [Example 71, N-(2-meth-oxyethyl)-1-(quino-lin-6-yl-methyl)-1H-[1,2,3]tri-azolo[4,5-b]py-rain-6-amine]: the Ki was 23 nM.

On to `CC(C)N(CCO)c1cnc2nnn(Cc3ccc4ncccc4c3)c2n1` [Example 73, 2-{isopropyl[1-(quino-lin-6-yl-methyl)-1H-[1,2,3]tri-azolo[4,5-b]py-razyl-6-yl]ami-no}ethanol], for which the Ki worked out at 37 nM.

For the compound `CCN(CCO)c1cnc2nnn(Cc3ccc4ncccc4c3)c2n1` [Example 74, 2-{ethyl[1-(quino-lin-6-yl-methyl)-1H-[1,2,3]tri-azolo[4,5-b]py-razin-6-yl]ami-no}ethanol], the Ki was 33 nM.

Consider `CC1C(=O)NCCN1c1cnc2nnn(Cc3ccc4ncccc4c3)c2n1` (stereo not drawn) [Example 75, 3-methyl-4-[1-(quino-lin-6-yl-methyl)-1H-[1,2,3]tri-azolo[4,5-b]py-razin-6-yl]pipe-razin-2-one], for which the Ki turned out to be 23 nM.

Regarding `OC[C@@H]1CCCN1c1cnc2nnn(Cc3ccc4ncccc4c3)c2n1` [Example 76, {(2S)-1-[1-(quino-lin-6-yl-methyl)-1H-[1,2,3]tri-azolo[4,5-b]pyra-zin-6-yl]pyr-rolidin-2-yl}methanol], the Ki came out at 65 nM.

For `CN(CCO)c1cnc2nnn(Cc3ccc4ncccc4c3)c2n1` [Example 78, 2-{methyl[1-(quino-lin-6-yl-methyl)-1H-[1,2,3]tri-azolo[4,5-b]py-razin-6-yl]ami-no}ethanol], the Ki amounted to 37 nM.

On to `O=C1CCN(c2cnc3nnn(Cc4ccc5ncccc5c4)c3n2)CCN1` [Example 79, 1-[1-(quinolin-6-yl-methyl)-1H-[1,2,3]tri-azolo[4,5-b]py-razin-6-yl]-14-di-azepan-5-one], for which the Ki was determined as 11 nM.

As for `OCC1CCN(c2cnc3nnn(Cc4ccc5ncccc5c4)c3n2)CC1` [Example 80, {1-[1-(quinolin-6-yl-methyl)-1H-[1,2,3]tri-azolo[4,5-b]py-razin-6-yl]pipe-ridin-4-yl}methanol], the Ki came to 21 nM.

With `CS(=O)(=O)C1CCN(c2cnc3nnn(Cc4ccc5ncccc5c4)c3n2)C1` (stereo not drawn) [Example 81, 6-({6-[3-(meth-ylsulfonyl)pyr-rolidin-1-yl]-1H-[1,2,3]tri-azolo[4,5-b]pyra-zin-1-yl}meth-yl)quinoline], the inhibitory constant (Ki) came to 43 nM.

With `CCN1CCN(c2cnc3nnn(Cc4ccc5ncccc5c4)c3n2)C(C)C1=O` (stereo not drawn) [Example 82, 1-ethyl-3-meth-yl-4-[1-(quino-lin-6-yl-methyl)-1H-[1,2,3]tri-azolo[4,5-b]pyra-zin-6-yl]pipe-razin-2-one], the Ki was 15 nM.

As to `O=C1CN(c2cnc3nnn(Cc4ccc5ncccc5c4)c3n2)CCN1` [Example 83, 4-[1-(quinolin-6-yl-methyl)-1H-[1,2,3]tri-azolo[4,5-b]py-razin-6-yl]pipe-razin-2-one], the Ki was 34 nM.

As to `CCCN(CCO)c1cnc2nnn(Cc3ccc4ncccc4c3)c2n1` [Example 84, 2-{propyl[1-(quino-lin-6-yl-methyl)-1H-[1,2,3]tri-azolo[4,5-b]pyra-zin-6-yl]amino}ethanol], the Ki stood at 26 nM.

Regarding `CN(CCS(C)(=O)=O)c1cnc2nnn(Cc3ccc4ncccc4c3)c2n1` [Example 85, N-methyl-N-[2-(meth-ylsulfonyl)ethyl]-1-(quino-lin-6-yl-methyl)-1H-[1,2,3]tri-azolo[4,5-b]pyra-zin-6-amine], the Ki was 12 nM.

As to `N#CC1CCN(c2cnc3nnn(Cc4ccc5ncccc5c4)c3n2)CC1` [Example 86, 1-[1-(quinolin-6-yl-methyl)-1H-[1,2,3]tri-azolo[4,5-b]py-razin-6-yl]pipe-ridine-4-carbonitrile], the Ki is 21 nM.

Take `CCc1nc(CN(C)c2cnc3nnn(Cc4ccc5ncccc5c4)c3n2)no1` [Example 87, N-[(5-ethyl-124-oxa-diazol-3-yl)meth- ]-N-meth-yl-1-(quino-lin-6-yl-methyl)-1H-[1,2,3]tri-azolo[4,5-b]pyra-zin-6-amine]: the Ki came to 54 nM.

For `CC1C(=O)N(C)CCN1c1cnc2nnn(Cc3ccc4ncccc4c3)c2n1` (stereo not drawn) [Example 88, 13-dimethyl-4-[1-(quino-lin-6-yl-methyl)-1H-[1,2,3]tri-azolo[4,5-b]pyra-zin-6-yl]pipe-razin-2-one], the Ki turned out to be 50 nM.

With `CN1CCN(c2cnc3nnn(Cc4ccc5ncccc5c4)c3n2)CC1=O` [Example 89, 1-methyl-4-[1-(quino-lin-6-yl-methyl)-1H-[1,2,3]tri-azolo[4,5-b]pyra-zin-6-yl]pipe-razin-2-one], the Ki is 41 nM.

For `CC1(CO)CCCN(c2cnc3nnn(Cc4ccc5ncccc5c4)c3n2)C1` (stereo not drawn) [Example 90, {3-methyl-1-[1-(quino-lin-6-yl-methyl)-1H-[1,2,3]tri-azolo[4,5-b]pyra-zin-6-yl]pipe-ridin-3-yl}methanol], the Ki worked out at 39 nM.

With `CCc1noc(CN(C)c2cnc3nnn(Cc4ccc5ncccc5c4)c3n2)n1` [Example 91, N-[(3-ethyl-124-oxa-diazol-5-yl)meth-yl]-N-meth-yl-1-(quino-lin-6-yl-methyl)-1H-[1,2,3]tri-azolo[4,5-b]pyra-zin-6-amine], the Ki was 25 nM.

For the compound `c1cnc2ccc(Cn3nnc4ncc(N5CCC(CCn6cccn6)CC5)nc43)cc2c1` [Example 92, 6-[(6-{4-[2-(1H-pyra-zol-1-yl)eth-yl]piperidin-1-yl}-1H-[1,2,3]tri-azolo[4,5-b]pyra-zin-1-yl)meth-yl]quinoline], the Ki was found to be 16 nM.

As for `CN(Cc1cc(-c2ccccn2)no1)c1cnc2nnn(Cc3ccc4ncccc4c3)c2n1` [Example 93, N-methyl-N-[(3-pyri-din-2-ylisoxa-zol-5-yl)meth-yl]-1-(quino-lin-6-yl-methyl)-1H-[1,2,3]tri-azolo[4,5-b]pyra-zin-6-amine], the Ki stood at 29 nM.

Regarding `CC1(CO)CCN(c2cnc3nnn(Cc4ccc5ncccc5c4)c3n2)CC1` [Example 94, {4-methyl-1-[1-(quino-lin-6-yl-methyl)-1H-[1,2,3]tri-azolo[4,5-b]pyra-zin-6-yl]pipe-ridin-4-yl}methanol], the Ki is 36 nM.

The same experiment, now with this note: Ki, HGFR 50 nM, Met-2 peptide 0.5 mM, ATP 300 μM, 37° C., absorbance 340 nm.
In turn, `OCCN(CCO)c1cnc2nnn(Cc3ccc4ncccc4c3)c2n1` [Example 77, 2,2′-{[1-(quino-lin-6-yl-methyl)-1H-[1,2,3]tri-azolo[4,5-b]py-razin-6-yl]imi-no}diethanol] had a Ki of 19 nM.
